{"source": "ChEMBL document CHEMBL1687775", "about": "“Bioavailability and population pharmacokinetics of voriconazole in lung transplant recipients” (Antimicrob Agents Chemother, 2010)", "type_in_all_cases": "ADME, organism-based", "key": {"[1]": {"assay": "Plasma concentration in lung transplant recipient at 6 mg/kg, iv twice a day administered immediately post transplant as 2 hr infusion followed by 200 mg, po bid for 3 months by HPLC analysis", "design": "dose 6 mg/kg, route oral", "conditions": "human"}, "[2]": {"assay": "Cmax in lung transplant recipient at 6 mg/kg, iv twice a day administered immediately post transplant as 2 hr infusion", "design": "dose 6 mg/kg, route intravenous", "conditions": "human, in vivo"}, "[3]": {"assay": "Tmax in lung transplant recipient at 6 mg/kg, iv twice a day administered immediately post transplant as 2 hr infusion followed by 200 mg, po bid for 3 months by HPLC analysis", "design": "dose 6 mg/kg, route oral", "conditions": "human, in vivo"}, "[4]": {"assay": "Cmax in lung transplant recipient at 6 mg/kg, iv twice a day administered immediately post transplant as 2 hr infusion followed by 200 mg, po bid for 3 months by HPLC analysis", "design": "dose 6 mg/kg, route oral", "conditions": "human, in vivo"}}}
{"molecule": "C[C@@H](c1ncncc1F)[C@](O)(Cn1cncn1)c1ccc(F)cc1F", "note": "[VORICONAZOLE]", "values": [{"measurement": "concentration at 2 h", "setting": "[1]", "result": 1000, "unit": "ng/mL"}, {"measurement": "Cmax", "setting": "[2]", "result": 3600, "unit": "ng/mL"}, {"measurement": "Tmax", "setting": "[3]", "result": 1.9, "unit": "h"}, {"measurement": "Cmax", "setting": "[4]", "result": 5900, "unit": "ng/mL"}]}
